The values below are quoted from earlier work in patent US20090215137A1, “METHODS FOR THE ECONOMICAL PRODUCTION OF BIOFUEL PRECURSOR THAT IS ALSO A BIOFUEL FROM BIOMASS” (GEVO, INC., priority 2007, published 2009).

Molecules are shown by their SMILES. In brackets after ≈: the same amount, converted by molar mass. Read-outs that look alike come from different tables or passages of the source.

By log P is commonly meant the decadic logarithm of the partition coefficient of the neutral form, usually between octanol and water.

The conditions of series [1]: octanol:water.
Another series deals with Klyveromyces marxianus. The settings on record: in binary combination.

`CCCCCCCCO` [Biocatalyst 1-octanol, 1-octanol]: the Solubility in water (20° C., unless noted) was 300 µg/mL (≈ 2300 µM). The solubility limit (two-phase system (Chen, Q. 1995)) was less than 1100 µg/mL. The “log P” value in series [1] is given as 3.

Take `CCC(C)O` (stereo not drawn) [Biocatalyst 2-butanol, 2-butanol]: in series [1], the log partition coefficient (log P) is listed as 0.6. As to `CC(C)O` [Biocatalyst 2-propanol, 2-propanol], where the note is “in words”, the “Solubility in water (20° C., unless noted)” value is reported as “miscible”. For the compound `COc1cc(C=O)ccc1O` [Vanillin, vanillin], the “reduction in both cell growth and fermentation” value with Klyveromyces marxianus was 90%.
